IC50 data for 24 molecules are collected here from US10106534B2 (CELGENE QUANTICEL RESEARCH, INC., priority 2014, dated 2018).

By IC50 is commonly meant the concentration that gives 50% inhibition. Lower therefore signals higher potency.

Test [1] deals with KYSE-150 esophageal carcinoma cell line. The test can be described thus: In vitro cell-based assay: cellular proliferation via BrdU incorporation (ELISA). More on the design: species or system human. As to conditions: Homo sapiens, KYSE-150, 168 hours compound incubation. How it is done:
The primary cellular assay for JMJD2C inhibition is an assay which measures cellular proliferation via Bromodeoxyuridine (BrdU) incorporation after 168 hours of compound incubation. Cell lines tested include the JMJD2C gene amplified cell line KYSE-150. This is a quantitative ELISA assay measuring DNA incorporation of BrdU during S-phase as a direct readout of cellular proliferation.
Assay Principle: This is a colorimetric immunoassay for the quantification of cell proliferation. Cells treated for 168 hours with test compounds are assayed for their ability to go through S-phase as a measure of their proliferative potential.
Assay Method: The human KYSE-150 (SMAD4 mut, TP53 mut) esophageal carcinoma cell line was seeded at 2,000 cells/well on a 96-well tissue culture treated plate. After an overnight incubation, cells were treated with compound in an 11-point dilution series with final concentrations ranging from 100 μM to 2 nM. Cells were then incubated in the presence of compound for 168 hours. After compound incubation the cells were assayed using a BrdU Cell Proliferation ELISA (Roche). The cells were first incubated with BrdU labeling reagent for 2 hours. After 2 hours, the BrdU incorporated cells were fixed and denatured, probed with an anti-BrdU-Peroxidase antibody for 1.5 hours and washed. Finally, a tetramethylbenzidine peroxidase substrate was added to each well for 15 minutes followed by a H2SO4 stop solution. The plate was read at 450 nm, and the raw optical density data was transferred into XLFit (IDBS) for IC50 calculation using the formula: fit=(D+((Vmax*(x^n))/((x^n)+(Km^n))))
A general note: Uptake of a labelled nucleoside into DNA is a usual measure of proliferation.

In test [2] the target is JMJD2C (Homo sapiens (Human), UniProt Q9H3R0). In words: In vitro enzyme inhibition assay for JMJD2C activity (TR-FRET). The class given is biochemical. How it is done:
This assay determines the ability of a test compound to inhibit JMJD2C demethylase activity. Baculovirus expressed JMJD2C (GenBank Accession #BC143571, AA 2-372) was purchased from BPS Bioscience (Cat#50105).
The ability of test compounds to inhibit the activity of JMJD2C was determined in 384-well plate format under the following reaction conditions: 0.3 nM JMJD2C, 300 nM H3K9me3-biotin labeled peptide (Anaspec cat #64360), 2 μM alpha-ketoglutaric acid in assay buffer of 50 mM HEPES, pH7.3, 0.005% Brij35, 0.5 mM TCEP, 0.2 mg/ml BSA, 50 μM sodium L-ascorbate, and 2 μM ammonium iron(II) sulfate. Reaction product was determined quantitatively by TR-FRET after the addition of detection reagent Phycolink Streptavidin-allophycocyanin (Prozyme) and Europium-anti-di-methylated histone H3 lysine 9 (H3K9me2) antibody (PerkinElmer) in the presence of 5 mM EDTA in LANCE detection buffer (PerkinElmer) at a final concentration of 50 nM and 1 nM, respectively.
The assay reaction was initiated by the following: 2 μl of the mixture of 900 nM H3K9me3-biotin labeled peptide and 6 μM alpha-ketoglutaric acid with 2 μl of 11-point serial diluted inhibitor in 3% DMSO were added to each well of the plate, followed by the addition of 2 μl of 0.9 nM JMJD2C to initiate the reaction. The reaction mixture was incubated at room temperature for 30 minutes, and terminated by the addition of 6 μl of 5 mM EDTA in LANCE detection buffer containing 100 nM Phycolink Streptavidin-allophycocyanin and 2 nM Europium-anti-H3K9me2 antibody. Plates were read by EnVisionMultilabel Reader in TR-FRET mode (excitation at 320 nm, emission at 615 nm and 665 nm) after 1 hour incubation at room temperature. A ratio was calculated (665/615) for each well and fitted to determine inhibition constant (IC50).

Chain of JMJD2C (Q9H3R0 2-372): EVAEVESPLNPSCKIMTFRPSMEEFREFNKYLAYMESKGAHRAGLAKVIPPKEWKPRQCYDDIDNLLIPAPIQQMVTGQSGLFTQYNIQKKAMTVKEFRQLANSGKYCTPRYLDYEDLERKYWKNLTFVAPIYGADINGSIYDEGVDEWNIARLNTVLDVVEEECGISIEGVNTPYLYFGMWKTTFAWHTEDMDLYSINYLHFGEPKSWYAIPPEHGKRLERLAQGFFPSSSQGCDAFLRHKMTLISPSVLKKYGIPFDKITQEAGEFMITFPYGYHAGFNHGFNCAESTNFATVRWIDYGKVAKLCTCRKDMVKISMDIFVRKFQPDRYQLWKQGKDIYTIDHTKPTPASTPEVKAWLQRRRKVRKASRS

For the molecule `O=C(O)c1ccncc1NCC1CCOc2cc(-c3ccc(C(F)(F)F)cc3)ccc21` (stereo not drawn) [Example 27, 3-[({7-[4-(trifluoromethyl)phenyl]-3,4-dihydro-2H-1-benzopyran-4-yl}methyl)amino]pyridine-4-carboxylic acid], the IC50 in test [1] and in test [2] was 1 to 10 µM throughout.

With `Cc1cccc(-c2ccc3c(c2)OCC[C@H]3CNc2cnccc2C(=O)O)c1` [Example 30, 3-({[(4R)-7-(3-methylphenyl)-3,4-dihydro-2H-1-benzopyran-4-yl]methyl}amino)pyridine-4-carboxylic acid], the IC50 in test [1] and in test [2] was 0.1 to 1 µM each time.

As to `Cc1ccc(-c2ccc3c(c2)OCC[C@H]3CNc2cnccc2C(=O)O)cc1` [Example 32, 3-({[(4R)-7-(4-methylphenyl)-3,4-dihydro-2H-1-benzopyran-4-yl]methyl}amino)pyridine-4-carboxylic acid], the IC50 is 1 to 10 µM in test [1] and 0.1 to 1 µM in test [2].

Regarding `CC(C)C#Cc1ccc2c(c1)OCCC2CNc1cnccc1C(=O)O` (stereo not drawn) [Example 38, 3-({[7-(3-methylbut-1-yn-1-yl)-3,4-dihydro-2H-1-benzopyran-4-yl]methyl}amino)pyridine-4-carboxylic acid], the IC50 in test [1] was more than 10 µM; in test [2] it was 0.1 to 1 µM.

Consider `Cc1c(F)cccc1-c1ccc2c(c1)OCC[C@H]2CNc1cnccc1C(=O)O` [Example 42, 3-({[(4R)-7-(3-fluoro-2-methylphenyl)-3,4-dihydro-2H-1-benzopyran-4-yl]methyl}amino)pyridine-4-carboxylic acid], for which the IC50 in test [1] and in test [2] was 0.1 to 1 µM in each case.

Take `Cc1ccc(F)cc1-c1ccc2c(c1)OCC[C@H]2CNc1cnccc1C(=O)O` [Example 43, 3-({[(4R)-7-(5-fluoro-2-methylphenyl)-3,4-dihydro-2H-1-benzopyran-4-yl]methyl}amino)pyridine-4-carboxylic acid]: the values for the half-inhibitory concentration (IC50) in test [1] and in test [2] were not above 0.1 µM and 0.1 to 1 µM, respectively.

For `O=C(O)c1ccncc1NC[C@@H]1CCOc2cc(-c3cccc(F)c3Cl)ccc21` [Example 44, 3-({[(4R)-7-(2-chloro-3-fluorophenyl)-3,4-dihydro-2H-1-benzopyran-4-yl]methyl}amino)pyridine-4-carboxylic acid], the IC50 in test [1] and in test [2] was 0.1 to 1 µM in each case.

As to `O=C(O)c1ccncc1NC[C@@H]1CCOc2cc(-c3cc(F)ccc3Cl)ccc21` [Example 45, 3-({[(4R)-7-(2-chloro-5-fluorophenyl)-3,4-dihydro-2H-1-benzopyran-4-yl]methyl}amino)pyridine-4-carboxylic acid], the half-maximal inhibitory concentration (IC50) in test [1] and in test [2] was 0.1 to 1 µM in each case.

Turning to `O=C(O)c1ccncc1NC[C@@H]1CCOc2cc(-c3ccccc3C(F)(F)F)ccc21` [Example 46, 3-({[(4R)-7-[2-(trifluoromethyl)phenyl]-3,4-dihydro-2H-1-benzopyran-4-yl]methyl}amino)pyridine-4-carboxylic acid], the values for the half-inhibitory concentration (IC50) in test [1] and in test [2] were not above 0.1 µM and 0.1 to 1 µM, respectively.

As to `O=C(O)c1ccncc1NC[C@@H]1CCOc2cc(Oc3ccccc3)ccc21` [Example 48, 3-({[(4R)-7-phenoxy-3,4-dihydro-2H-1-benzopyran-4-yl]methyl}amino)pyridine-4-carboxylic acid], the figures for the IC50 in test [1] and in test [2] were 1 to 10 µM and 0.1 to 1 µM, respectively.

As to `O=C(O)c1ccncc1NCC1CCOc2cc(Sc3cccs3)ccc21` (stereo not drawn) [Example 49, 3-({[7-(thiophen-2-ylsulfanyl)-3,4-dihydro-2H-1-benzopyran-4-yl]methyl}amino)pyridine-4-carboxylic acid], the half-inhibitory concentration (IC50) was in the range of 1 to 10 µM in test [1] and 0.1 to 1 µM in test [2].

In the case of `Cc1ccccc1Sc1ccc2c(c1)OCC[C@H]2CNc1cnccc1C(=O)O` [Example 51, 3-({[(4R)-7-[(2-methylphenyl)sulfanyl]-3,4-dihydro-2H-1-benzopyran-4-yl]methyl}amino)pyridine-4-carboxylic acid], the IC50 in test [1] fell in the range of 1 to 10 µM; in test [2], 0.1 to 1 µM.

As to `O=C(O)c1ccncc1NC[C@@H]1CCOc2cc(Sc3cccc(F)c3)ccc21` [Example 53, 3-({[(4R)-7-[(3-fluorophenyl)sulfanyl]-3,4-dihydro-2H-1-benzopyran-4-yl]methyl}amino)pyridine-4-carboxylic acid], the concentration for half-maximal inhibition (IC50) in test [1] and in test [2] was 0.1 to 1 µM throughout.

For the molecule `Cc1cccc(Oc2ccc3c(c2)CCCC3CNc2cnccc2C(=O)O)n1` (stereo not drawn) [Example 56, 3-[({6-[(6-methylpyridin-2-yl)oxy]-1,2,3,4-tetrahydronaphthalen-1-yl}methyl)amino]pyridine-4-carboxylic acid], the IC50 in test [1] was in the range of 1 to 10 µM; in test [2], 0.1 to 1 µM.

With `Cc1ccccc1Oc1ccc2c(c1)CCC[C@H]2CNc1cnccc1C(=O)O` [Example 58, 3-({[(1R)-6-(2-methylphenoxy)-1,2,3,4-tetrahydronaphthalen-1-yl]methyl}amino)pyridine-4-carboxylic acid], the IC50 in test [1] is not above 0.1 µM; in test [2], 0.1 to 1 µM.

As to `CCCOc1ccc2c(c1)CCCC2CNc1cnccc1C(=O)O` (stereo not drawn) [Example 59, 3-{[(6-propoxy-1,2,3,4-tetrahydronaphthalen-1-yl)methyl]amino}pyridine-4-carboxylic acid], the values for the half-inhibitory concentration (IC50) in test [1] and in test [2] were 1 to 10 µM and 0.1 to 1 µM, respectively.

With `O=C(O)c1ccncc1NC[C@@H]1CCCc2cc(OC(F)F)ccc21` [Example 61, 3-({[(1R)-6-(difluoromethoxy)-1,2,3,4-tetrahydronaphthalen-1-yl]methyl}amino)pyridine-4-carboxylic acid], the IC50 lay within 1 to 10 µM in test [1] and 0.1 to 1 µM in test [2].

Turning to `O=C(O)c1ccncc1NCC1CCCc2cc(OCC3CCOCC3)ccc21` (stereo not drawn) [Example 63, 3-({[6-(oxan-4-ylmethoxy)-1,2,3,4-tetrahydronaphthalen-1-yl]methyl}amino)pyridine-4-carboxylic acid], the concentration for half-maximal inhibition (IC50) in test [1] was more than 10 µM; in test [2], 0.1 to 1 µM.

As for `Cc1cc(F)ccc1Oc1ccc2c(c1)CCC[C@H]2CNc1cnccc1C(=O)O` [Example 64, 3-({[(1R)-6-(4-fluoro-2-methylphenoxy)-1,2,3,4-tetrahydronaphthalen-1-yl]methyl}amino)pyridine-4-carboxylic acid], the IC50 is not above 0.1 µM in test [1] and 0.1 to 1 µM in test [2].

With `O=C(O)c1ccncc1NC[C@@H]1CCCc2cc(Oc3ccc(F)cc3F)ccc21` [Example 65, 3-({[(1R)-6-(2,4-difluorophenoxy)-1,2,3,4-tetrahydronaphthalen-1-yl]methyl}amino)pyridine-4-carboxylic acid], the 50% inhibitory concentration (IC50) in test [1] and in test [2] was 0.1 to 1 µM each time.

For the molecule `O=C(O)c1ccncc1NC[C@@H]1CCCc2cc(Oc3ccccc3Cl)ccc21` [Example 67, 3-({[(1R)-6-(2-chlorophenoxy)-1,2,3,4-tetrahydronaphthalen-1-yl]methyl}amino)pyridine-4-carboxylic acid], the IC50 in test [1] and in test [2] was 0.1 to 1 µM each time.

For `Cc1cccc(Sc2ccc3c(c2)CCC[C@H]3CNc2cnccc2C(=O)O)c1` [Example 69, 3-({[(1R)-6-[(3-methylphenyl)sulfanyl]-1,2,3,4-tetrahydronaphthalen-1-yl]methyl}amino)pyridine-4-carboxylic acid], the values for the IC50 in test [1] and in test [2] were 0.1 to 1 µM and 1 to 10 µM, respectively.

In the case of `Cc1ccccc1Sc1ccc2c(c1)CCC[C@H]2CNc1cnccc1C(=O)O` [Example 71, 3-({[(1R)-6-[(2-methylphenyl)sulfanyl]-1,2,3,4-tetrahydronaphthalen-1-yl]methyl}amino)pyridine-4-carboxylic acid], the concentration for half-maximal inhibition (IC50) was 0.1 to 1 µM in test [1] and 1 to 10 µM in test [2].

As to `O=C(O)c1ccncc1NC[C@@H]1CCCc2cc(Sc3ccccc3F)ccc21` [Example 73, 3-({[(1R)-6-[(2-fluorophenyl)sulfanyl]-1,2,3,4-tetrahydronaphthalen-1-yl]methyl}amino)pyridine-4-carboxylic acid], the IC50 in test [1] and in test [2] was 0.1 to 1 µM in each case.
